Measured values as given in patent US12466831B2, “Substituted amino triazolopyrimidine and amino triazolopyrazine adenosine receptor antagonists, pharmaceutical compositions and their use” (Merck Sharp & Dohme LLC, priority 2018, dated 2025).

Columns and labels:
[1] = molecular target: T1, human A2a adenosine receptor (Homo sapiens, UniProt P29274); experiment: A2a binding affinity using radioligand binding, Method (A); settings: Method (A): [3H]SCH58261 filtration binding, membranes expressing human A2a
T1 construct: purchased Perkin Elmer RBHA2aM400UA; host or cells: HEK293 or CHO cells (recombinant expression)
Excerpt: (§1) Method (A) describes the procedure used to measure A2a binding affinity using radioligand binding. Method (B) describes the procedure used to measure A2a binding affinity using SPA technology. The method used to measure A2b binding affinity is also described below. The method used to determine the A2a IC50 value reported for each compound in the table is indicated next to the reported value. The A2b IC50 value measured using the A2b binding affinity assay is shown in the table next to the compound under the corresponding A2a value.
The A2a receptor affinity binding assay measured the amount of binding of a tritiated ligand with high affinity for the A2a adenosine receptor to membranes made from HEK293 or CHO cells recombinantly expressing the human A2a adenosine receptor, in the presence of varying concentrations of a compound of the invention. The data were generated using either filtration binding or a homogenous scintillation proximity assay (SPA).
Method (A): Measurement of A2a Binding Affinity Using Radioligand Binding
148 μL (5 μg/mL) membranes (Perkin Elmer, Cat. No. RBHA2aM400UA) and 2 μL compounds of the invention to be tested (test compound) were transferred to individual wells of a 96-well polypropylene assay plate and incubated for 15 to 30 minutes at room temperature. [^3H] SCH58261 ((7-(2-phenylethyl)-5-amino-2-(2-furyl)-pyrazolo-[4,3-e]-1,2,4-triazolo[1,5-c]pyrimidine)) was diluted in assay buffer (50 mM Tris pH 7.4, 10 mM MgCl2, 0.005% Tween20) to a concentration of 4 nM and 50 μL transferred to each well of the assay plate. To define total and non-specific binding, wells containing 1% DMSO and 1 μM ZM241385 (Tocris Bioscience, Cat. No. 1036) respectively, were also included. The assay plate was incubated at room temperature for 60 minutes with agitation. Using a FilterMate Harvester® (Perkin Elmer), the contents of the assay plate were filtered through a UniFilter-96® PEI coated plate (Perkin Elmer Cat. No. 6005274 or 6005277). Filtering was achieved by aspirating the contents of the assay plate for 5 seconds, then washing and aspirating the contents three times with ice-cooled wash buffer (50 mM Tris-HCl pH 7.4, 150 mM NaCl) and allowing the vacuum manifold to dry the plate for 30 seconds. The filter plate was incubated for at least 1 hour at 55° C. and allowed to dry. The bottom of the filter plate was sealed with backing tape. 40 μL Ultima Gold™ (Perkin Elmer, Cat. No. 6013329) was added to each well of the filter plate and the top of the plate was sealed with TopSeal-A PLUS® clear plate seal (Perkin Elmer, Cat. No. 6050185). The plate was incubated for at least 20 minutes, and then the amount of radioactivity remaining in each well was determined using a TopCount® (Perkin Elmer) scintillation counter. After normalization to total and non-specific binding, the percent effect at each compound concentration was calculated. The plot of percent effect versus the log of compound concentration was analyzed electronically using a 4-parameter logistic fit based on the Levenberg-Marquardt algorithm to generate IC50 values.

[2] = molecular target: T2, human A2b adenosine receptor (Homo sapiens, UniProt P29275); experiment: A2b binding affinity, radioligand filtration binding assay; settings: tritiated proprietary A2b antagonist, HEK293 membranes expressing human A2b
T2 construct: purchased Perkin Elmer ES-013-C; host or cells: HEK293 cells recombinantly expressing the receptor; membranes made from them
T2 sequence (P29275 1-332): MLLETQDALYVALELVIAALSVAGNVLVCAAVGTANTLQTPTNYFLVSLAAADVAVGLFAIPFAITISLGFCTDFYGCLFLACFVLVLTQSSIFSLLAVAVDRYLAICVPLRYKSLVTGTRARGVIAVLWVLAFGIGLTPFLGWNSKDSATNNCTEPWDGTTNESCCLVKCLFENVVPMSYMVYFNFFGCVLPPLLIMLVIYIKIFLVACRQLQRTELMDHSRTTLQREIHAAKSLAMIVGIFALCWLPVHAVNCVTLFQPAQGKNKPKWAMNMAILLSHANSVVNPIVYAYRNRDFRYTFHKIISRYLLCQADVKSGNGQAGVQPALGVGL
Excerpt: as §1
Measurement of A2b Binding Affinity
The reported affinity of the compounds of the invention for the human A2b adenosine receptor was determined experimentally using a radioligand filtration binding assay. This assay measures the amount of binding of a tritiated proprietary A2b receptor antagonist, in the presence and absence of a compound of the invention, to membranes made from HEK293 cells recombinantly expressing the human A2b adenosine receptor (Perkin Elmer, Cat. No. ES-013-C).
148 μL (135 μg/mL) membranes and 2 μL test compounds were transferred to individual wells of a 96-well polypropylene assay plate and incubated for 15 to 30 minutes at room temperature with agitation. Tritiated radioligand was diluted to a concentration of 14 nM in assay buffer (phosphate buffered saline without Magnesium and Calcium, pH 7.4; GE Healthcare Life Sciences, Cat. No. SH30256.01) and then 50 μL of the solution were transferred to each well of the assay plate. To define total and non-specific binding, wells containing 1% DMSO and 20 μM N-ethylcarboxamidoadenosine (Tocris Bioscience, Cat. No. 1691) respectively, were also included. The wells of the assay plate were incubated at room temperature for 60 minutes with agitation, then filtered using a FilterMate Harvester® (Perkin Elmer) or similar equipment through a UniFilter-96® PEI coated plate (Perkin Elmer Cat. No. 6005274 or 6005277). Filtering was achieved by aspirating the contents of the assay plate for 5 seconds, then washing and aspirating the contents three times with ice-cooled wash buffer (assay buffer supplemented with 0.0025% Brij58) and allowing the vacuum manifold to dry the plate for 30 seconds. The filter plate was incubated for at least 1 hour at 55° C. and allowed to dry. The bottom of the filter plate was then sealed with backing tape. 40 μL Ultima Gold™ (Perkin Elmer, Cat. No. 6013329) was added to each well of the filter plate and the top of the plate was sealed with TopSeal-A PLUS® clear plate seal (Perkin Elmer, Cat. No. 6050185). The plates were then incubated for at least 20 minutes, and then the amount of radioactivity remaining in each well was determined using a TopCount® (Perkin Elmer) scintillation counter. After normalization to total and non-specific binding, the percent effect at each compound concentration was calculated. The plot of percent effect versus the log of compound concentration was analyzed electronically using a 4-parameter logistic fit based on the Levenberg-Marquardt algorithm to generate IC50 values.

T1 sequence (P29274 whole entry): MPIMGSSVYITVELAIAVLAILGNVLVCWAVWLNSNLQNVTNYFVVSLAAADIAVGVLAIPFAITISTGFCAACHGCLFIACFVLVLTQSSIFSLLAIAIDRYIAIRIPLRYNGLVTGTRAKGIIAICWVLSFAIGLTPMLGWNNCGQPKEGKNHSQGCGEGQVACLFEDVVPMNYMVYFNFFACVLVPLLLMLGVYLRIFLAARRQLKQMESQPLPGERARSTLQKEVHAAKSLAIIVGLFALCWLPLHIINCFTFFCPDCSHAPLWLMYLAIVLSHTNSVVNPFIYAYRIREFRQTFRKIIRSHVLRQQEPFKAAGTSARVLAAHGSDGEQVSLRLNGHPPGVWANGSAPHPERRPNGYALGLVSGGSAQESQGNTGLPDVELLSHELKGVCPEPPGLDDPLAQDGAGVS

## Cc1c(-c2ncco2)nc(N)n2nc([C@@H]3CCCN(c4cnn(CC(C)(C)O)c4)C3)nc12 [Example 3.7, (R)-1-(4-(3-(5-amino-8-methyl-7-(oxazol-2-yl)-[1,2,4]triazolo[1,5-c]pyrimidin-2-yl)piperidin-1-yl)-1H-pyrazol-1-yl)-2-methylpropan-2-ol]
[1]
  IC50: 4.7 nM
[2]
  IC50: 224 nM

## Cc1c(-c2ncco2)nc(N)n2nc([C@@H]3CCCN(c4cnn(C(C)C)c4)C3)nc12 [Example 3.12, (R)-2-(1-(1-isopropyl-1H-pyrazol-4-yl)piperidin-3-yl)-8-methyl-7-(oxazol-2-yl)-[1,2,4]triazolo[1,5-c]pyrimidin-5-amine]
[1]
  IC50: 1.2 nM
[2]
  IC50: 167 nM

## Cc1c(-c2cccc(F)c2)nc(N)c2nc(C3CCCC(C)(O)C3)nn12 (single isomer, unassigned) [Example 8.10-1, (1R,3S or 1S,3R or 1R,3R or 1S,3S)-1-3-(8-amino-6-(3-fluorophenyl)-5-methyl-[1,2,4]triazolo[1,5-a]pyrazin-2-yl)-1-methylcyclohexan-1-ol]
[1]
  IC50: 175 nM
[2]
  IC50: 2640 nM

## CCn1cc(N2CCC[C@@H](c3nc4c(C)c(-c5ncco5)nc(N)n4n3)C2)cn1 [Example 3.3, (R)-2-(1-(1-ethyl-1H-pyrazol-4-yl)piperidin-3-yl)-8-methyl-7-(oxazol-2-yl)-[1,2,4]triazolo[1,5-c]pyrimidin-5-amine]
[1]
  IC50: 0.9 nM
[2]
  IC50: 155 nM

## CCn1cc(N2C[C@H](c3nc4c(C)c(-c5ncco5)nc(N)n4n3)CC[C@@H]2C)cn1 [Example 2.14, 2-((3R,6S)-1-(1-ethyl-1H-pyrazol-4-yl)-6-methylpiperidin-3-yl)-8-methyl-7-(oxazol-2-yl)-[1,2,4]triazolo[1,5-c]pyrimidin-5-amine]
[1]
  IC50: 1.2 nM
[2]
  IC50: 17.6 nM

## Cc1c(-c2ncco2)nc(N)c2nc(C3CCCC(C)(O)C3)nn12 (single isomer, unassigned) [Example 8.4, (1R,3S and 1S,3R) or (1R,3R and 1S,3S)-3-(8-amino-5-methyl-6-(oxazol-2-yl)-[1,2,4]triazolo[1,5-a]pyrazin-2-yl)-1-methylcyclohexan-1-ol]
[1]
  IC50: 6.7 nM
[2]
  IC50: 411 nM

## Cc1c(-c2cccc(F)c2)nc(N)n2nc([C@@H]3CCCN(c4cnn(CC(C)(C)O)c4)C3)nc12 [Example 3.11, (R)-1-(4-(3-(5-amino-7-(3-fluorophenyl)-8-methyl-[1,2,4]triazolo[1,5-c]pyrimidin-2-yl)piperidin-1-yl)-1H-pyrazol-1-yl)-2-methylpropan-2-ol]
[1]
  IC50: 29.2 nM
[2]
  IC50: 542 nM

## Cc1c(-c2ncco2)nc(N)n2nc([C@@H]3CCCN(c4cnn(CC5(O)CCC5)c4)C3)nc12 [Example 3.8, (R)-1-((4-(3-(5-amino-8-methyl-7-(oxazol-2-yl)-[1,2,4]triazolo[1,5-c]pyrimidin-2-yl)piperidin-1-yl)-1H-pyrazol-1-yl)methyl)cyclobutan-1-ol]
[1]
  IC50: 2.7 nM
[2]
  IC50: 191 nM

## Cc1c(-c2cccc(F)c2)nc(N)c2nc(C3CCCC(C)(O)C3)nn12 (single isomer, unassigned) [Example 8.10-2, (1R,3S or 1S,3R or 1R,3R or 1S,3S)-1-3-(8-amino-6-(3-fluorophenyl)-5-methyl-[1,2,4]triazolo[1,5-a]pyrazin-2-yl)-1-methylcyclohexan-1-ol]
[1]
  IC50: 363 nM
[2]
  IC50: 2540 nM

## Cc1cc(N2CCC[C@@H](c3nc4c(C)c(-c5ncco5)nc(N)n4n3)C2)cn(C(F)F)c1=O [Example 3.14, (R)-5-(3-(5-amino-8-methyl-7-(oxazol-2-yl)-[1,2,4]triazolo[1,5-c]pyrimidin-2-yl)piperidin-1-yl)-1-(difluoromethyl)-3-methylpyridin-2(1H)-one]
[1]
  IC50: 0.2 nM
[2]
  IC50: 116 nM

## CNC(=O)C(C)(C)n1cc(N2CCC[C@@H](c3nc4c(C)c(-c5ncco5)nc(N)n4n3)C2)cn1 [Example 3.4, (R)-2-(4-(3-(5-amino-8-methyl-7-(oxazol-2-yl)-[1,2,4]triazolo[1,5-c]pyrimidin-2-yl)piperidin-1-yl)-1H-pyrazol-1-yl)-N,2-dimethylpropanamide]
[1]
  IC50: 5.4 nM
[2]
  IC50: 85.5 nM

## Cc1c(-c2ncco2)nc(N)n2nc([C@@H]3CCCN(c4cnn(CC(F)(F)F)c4)C3)nc12 [Example 3.5, (R)-8-methyl-7-(oxazol-2-yl)-2-(1-(1-(2,2,2-trifluoroethyl)-1H-pyrazol-4-yl)piperidin-3-yl)-[1,2,4]triazolo[1,5-c]pyrimidin-5-amine]
[1]
  IC50: 1.3 nM
[2]
  IC50: 34.4 nM

## Cc1c(-c2ncco2)nc(N)n2nc(C3CCCC(C)(O)C3)nc12 (single isomer, unassigned) [Example 8.3-2, (1-R or S,3-R or S)-3-(5-amino-8-methyl-7-(oxazol-2-yl)-[1,2,4]triazolo[1,5-c]pyrimidin-2-yl)-1-methylcyclohexan-1-ol]
[1]
  IC50: 0.9 nM
[2]
  IC50: 64.5 nM

## Cc1c(-c2cccc(F)c2)nc(N)c2nc(C3CCC(C)(O)C3)nn12 (single isomer, unassigned) [Example 8.8, (1R,3S and 1S,3R) or (1R,3R and 1S,3S)-3-(8-amino-6-(3-fluorophenyl)-5-methyl-[1,2,4]triazolo[1,5-a]pyrazin-2-yl)-1-methylcyclopentan-1-ol]
[1]
  IC50: 70.5 nM
[2]
  IC50: 350 nM

## Cc1c(-c2ncco2)nc(N)c2nc(C3(c4ncccc4F)CC3)nn12 [Example 2.7, 2-(1-(3-fluoropyridin-2-yl)cyclopropyl)-5-methyl-6-(oxazol-2-yl)-[1,2,4]triazolo[1,5-a]pyrazin-8-amine]
[1]
  IC50: 56.4 nM
[2]
  IC50: 2910 nM

## Cc1c(-c2cccc(F)c2)nc(N)n2nc([C@@H]3CCCNC3)nc12 [Example 2.4, (R)-7-(3-fluorophenyl)-8-methyl-2-(piperidin-3-yl)-[1,2,4]triazolo[1,5-c]pyrimidin-5-amine]
[1]
  IC50: 57.7 nM
[2]
  IC50: 873 nM
